Patent US20260041669A1, “SOLID FORMS OF A CDK INHIBITOR” (Relay Therapeutics, Inc., priority 2022, published 2026)
≈ marks a conversion by molar mass, not a printed value. Where “and” joins values, the source holds several entries; their conditions need not be identical. Equal entries are not always repeated. Where two headings read alike, the source gives them in different places.

Assay: Thermodynamic solubility of cocrystals (HPLC quantitation)
Format: physicochemical
Conditions: for solubility at 24 h: thermodynamic from solid
Protocol: Base Buffer (FaSSGF), pH 1.6—Sodium chloride (2.03 g) was dissolved in Ca. 800 ml of deionised water in a 1 L volumetric flask. This solution was mixed thoroughly and then the pH adjusted to 1.6±0.05 with concentrated hydrochloric acid. The solution was then made to volume with deionised water and the pH recorded (pH 1.6).
FaSSGF Media—Phares SIF (simulated intestinal fluid) powder (0.06 g) was dissolved in Ca. 800 ml of base buffer (2.1.1) in a 1 L volumetric flask. This solution was mixed thoroughly and then made to volume with the same base buffer. The final pH was recorded (pH 1.7)
Acetate Base Buffer (FeSSIF), pH 5.0—Sodium hydroxide (11.90 g), acetic acid (8.25 ml) and sodium chloride (3.96 g) were dissolved in Ca. 800 ml of deionised water in a 1 L volumetric flask. This solution was mixed thoroughly and then the pH adjusted to 5.0±0.05 with 0.5M hydrochloric acid. The solution was then made to volume with deionised water and the pH recorded (pH 5.0)
FeSSIF Media—Phares SIF (simulated intestinal fluid) powder (1.12 g) was dissolved in Ca. 80 ml of base buffer (2.2.1) in a 100 ml volumetric flask. This solution was mixed thoroughly and then made to volume with the same base buffer. The final pH was recorded (pH 4.8)
Phosphate Base Buffer (FeSSIF), pH 6.5—Sodium hydroxide (0.41 g), sodium phosphate monobasic (3.95 g) and sodium chloride (6.49 g) were dissolved in Ca. 800 ml of deionised water in a 1 L volumetric flask. This solution was mixed thoroughly and then the pH adjusted to 6.5 f 0.05 with 0.5M hydrochloric acid. The solution was then made to volume with deionised water and the pH recorded (pH 6.5)
FaSSIF Media—Phares SIF (simulated intestinal fluid) powder (0.23 g) was dissolved in Ca. 80 ml of base buffer ([00300]) in a 100 ml volumetric flask. This solution was mixed thoroughly and then made to volume with the same base buffer. The final pH was recorded (pH 6.3)
DI Water (deionized water)—The pH was recorded (pH 6.1)
Thermodynamic Solubility—Sufficient sample was suspended in 0.5 ml media for a maximum anticipated concentration of Ca. 10 mg/ml of the free form of the compound. The resulting suspensions were then shaken at 25° C./750 rpm for 24 hours in DI H2O and at 37° C./750 rpm for 24 hours in simulated fluids. After equilibration, the appearance was noted, and the pH of the saturated solution was measured. Samples were then filtered through a glass ‘C’ fibre filter (Particle retention 1.2 μm), before dilution with buffer as appropriate.
Quantitation was by HPLC with reference to a standard solution of approximately 0.15 mg/ml. Different volumes of the standards and diluted sample solutions were injected. The solubility was calculated using the peak areas determined by integration of the peak found at the same retention time as the principal peak in the standard injection.
The results from the solubility measurements in deionized water (DI water), stimulated fasting state conditions in the gastric fluid (FaSGF), simulated fed state conditions in the small intestines (FeSSIF), and simulated fasting state conditions in the small intestines fluid (FaSSIF) are summarized in Table 16.

[1] = DI Water, shaken at 25° C./750 rpm for 24 hours, single replicate
[2] = FaSSGF, shaken at 37° C./750 rpm for 24 hours, average
[3] = FaSSGF, shaken at 37° C./750 rpm for 24 hours, single replicate
[4] = FeSSIF, shaken at 37° C./750 rpm for 24 hours, average
[5] = FeSSIF, shaken at 37° C./750 rpm for 24 hours, single replicate
[6] = DI Water, shaken at 25° C./750 rpm for 24 hours, average
[7] = FaSSIF, shaken at 37° C./750 rpm for 24 hours, average
[8] = FaSSIF, shaken at 37° C./750 rpm for 24 hours, single replicate

| Compound | Solubility [1] [mg/mL] | Average Solubility [2] [mg/mL] | Solubility [3] | Average Solubility [4] [mg/mL] | Solubility [5] | solubility at 24 h (deionized water, 25 °C, pH 6.1, water, DI Water, shaken at 25° C./750 rpm for 24 hours, average, read-out: Average Solubility) [mg/mL] | solubility at 24 h (deionized water, 25 °C, pH 6.1, water, DI Water, shaken at 25° C./750 rpm for 24 hours, single replicate, read-out: Solubility) [mg/mL] | Average Solubility [6] [mg/mL] | Average Solubility [7] [mg/mL] | Solubility [8] [mg/mL] | solubility at 24 h (FaSSGF (simulated gastric fluid, fasted state), 37 °C, pH 1.7, fassgf or other biorelevant, FaSSGF, shaken at 37° C./750 rpm for 24 hours, average, read-out: Average Solubility) [mg/mL] | solubility at 24 h (FaSSGF (simulated gastric fluid, fasted state), 37 °C, pH 1.7, fassgf or other biorelevant, FaSSGF, shaken at 37° C./750 rpm for 24 hours, single replicate, read-out: Solubility) [mg/mL] | solubility at 24 h (FaSSIF (simulated intestinal fluid, fasted state), 37 °C, pH 6.3, fassif, FaSSIF, shaken at 37° C./750 rpm for 24 hours, average, read-out: Average Solubility) [mg/mL] | solubility at 24 h (FaSSIF (simulated intestinal fluid, fasted state), 37 °C, pH 6.3, fassif, FaSSIF, shaken at 37° C./750 rpm for 24 hours, single replicate, read-out: Solubility) [mg/mL] | solubility at 24 h (FeSSIF (simulated intestinal fluid, fed state), 37 °C, pH 4.8, fessif, FeSSIF, shaken at 37° C./750 rpm for 24 hours, average, read-out: Average Solubility) [mg/mL] |
| --- | --- | --- | --- | --- | --- | --- | --- | --- | --- | --- | --- | --- | --- | --- | --- |
| Cn1nc(OCC(F)F)cc1C(=O)Nc1cc([C@H]2C[C@@H](OC(=O)NC34CC(C3)C4)CO2)n[nH]1 [Componud I-3 Form A] | 0.30 (≈ 643 µM) | 0.39 | 0.38 mg/mL and 0.39 mg/mL | 0.49 | 0.62 mg/mL and 0.36 mg/mL | 0.3 (≈ 643 µM) | 0.29 (≈ 622 µM) | – | – | – | – | – | – | – | – |
| Cn1nc(OCC(F)F)cc1C(=O)Nc1cc([C@H]2C[C@@H](OC(=O)NC34CC(C3)C4)CO2)n[nH]1 [Compound 1-5 Form A] | 0.28 (≈ 600 µM) | 0.31 | 0.31 mg/mL (≈ 665 µM) | 0.82 | 0.84 mg/mL and 0.80 mg/mL | – | – | 0.28 | 0.25 | 0.24 (≈ 515 µM) | – | – | – | – | – |
| Cn1nc(OCC(F)F)cc1C(=O)Nc1cc([C@H]2C[C@@H](OC(=O)NC34CC(C3)C4)CO2)n[nH]1 [Compound 1-6 Form A] | 0.33 (≈ 707 µM) | 0.32 | 0.32 mg/mL (≈ 686 µM) | 0.70 | 0.66 mg/mL and 0.73 mg/mL | – | – | 0.33 | 0.31 | 0.31 (≈ 665 µM) | – | – | – | – | – |
| Cn1nc(OCC(F)F)cc1C(=O)Nc1cc([C@H]2C[C@@H](OC(=O)NC34CC(C3)C4)CO2)n[nH]1 [Compound I-2 Form A] | 0.21 (≈ 450 µM) | – | 0.35 mg/mL (≈ 750 µM) | – | 0.92 mg/mL and 0.85 mg/mL | – | – | 0.21 | – | – | 0.35 (≈ 750 µM) | 0.34 (≈ 729 µM) | 0.29 (≈ 622 µM) | 0.29 (≈ 622 µM) | 0.89 (≈ 1910 µM) |
| Cn1nc(OCC(F)F)cc1C(=O)Nc1cc([C@H]2C[C@@H](OC(=O)NC34CC(C3)C4)CO2)n[nH]1 [Compound I-4 Form A] | 0.29 (≈ 622 µM) | 0.37 | 0.37 mg/mL and 0.36 mg/mL | 0.88 | 0.94 mg/mL and 0.82 mg/mL | – | – | 0.29 | 0.29 | 0.28 (≈ 600 µM) | – | – | – | – | – |
